Results reported in patent US9028845B2, “Chimeric immunomodulatory compounds and methods of using the same-IV” (Dynavax Technologies Corporation, priority 2001, dated 2015).
Strand notation (5' to 3'): a small letter for the sugar, then the base; units joined by * are phosphorothioate-linked, units joined directly phosphodiester-linked; [ ] holds rarer units or linkages, { } end groups; capitals alone tell only the bases. d = 2'-deoxy (DNA)

System: human PBMCs
Experiment: Human PBMC cytokine response assay (IFN-γ and IFN-α in cell-free medium by ELISA), with or without cPLGA
Format: cell-based
[1] = Donor 5, 20 μg/ml (mixtures: 20 μg/ml total), 24 h
[2] = Donor 6, 20 μg/ml (mixtures: 20 μg/ml total), 24 h

5′-TGACTGTGAACCTTAGAGATGA-3′ (SEQ ID NO: 3) (dT*dG*dA*dC*dT*dG*dT*dG*dA*dA*dC*dC*dT*dT*dA*dG*dA*dG*dA*dT*dG*dA) [Compound P-7, negative control, reference compound]
IFN-α (pg/ml) Donor 1 (Donor 1, 20 μg/ml, 24 h): 0 pg/mL | IFN-γ (pg/ml) Donor 1 (Donor 1, 20 μg/ml, 24 h): 410 pg/mL | IFN-α (pg/ml) Donor 2 (Donor 2, 20 μg/ml, 24 h): 0 pg/mL | IFN-γ (pg/ml) Donor 2 (Donor 2, 20 μg/ml, 24 h): 51 pg/mL | IFN-α (pg/ml) Donor 3 (Donor 3, 20 μg/ml, 24 h): 0 pg/mL | IFN-γ (pg/ml) Donor 3 (Donor 3, 20 μg/ml, 24 h): 3 pg/mL | IFN-α (pg/ml) Donor 4 (Donor 4, 20 μg/ml, 24 h): 31 pg/mL | IFN-γ (pg/ml) Donor 4 (Donor 4, 20 μg/ml, 24 h): 8 pg/mL | IFN-α (pg/ml) Donor 5 [1]: 20 pg/mL | IFN-γ (pg/ml) Donor 5 [1]: 7 pg/mL | IFN-α (pg/ml) Donor 6 [2]: 94 pg/mL | IFN-γ (pg/ml) Donor 6 [2]: 66 pg/mL | IFN-α (pg/ml) Donor 7 (Donor 7, 20 μg/ml, 24 h): 0 pg/mL | IFN-γ (pg/ml) Donor 7 (Donor 7, 20 μg/ml, 24 h): 2 pg/mL | IFN-α (pg/ml) Donor 8 (Donor 8, 20 μg/ml, 24 h): 0 pg/mL | IFN-γ (pg/ml) Donor 8 (Donor 8, 20 μg/ml, 24 h): 2 pg/mL | IFN-α Donor 9 (Donor 9, 20 μg/ml, 24 h): 0 | IFN-γ Donor 9 (Donor 9, 20 μg/ml, 24 h): 5 | IFN-α Donor 10 (Donor 10, 20 μg/ml, 24 h): 3 | IFN-γ Donor 10 (Donor 10, 20 μg/ml, 24 h): 2 | IFN-α Donor 11 (Donor 11, 20 μg/ml, 24 h): 1 | IFN-γ Donor 11 (Donor 11, 20 μg/ml, 24 h): 3 | IFN-α Donor 12 (Donor 12, 20 μg/ml, 24 h): 5 | IFN-γ Donor 12 (Donor 12, 20 μg/ml, 24 h): 2 | IFN-α (Example 58, 0.8 ug/ml, donor 1): 52 pg/mL | IFN-α (Example 58, 0.8 ug/ml, donor 2): 52 pg/mL | IFN-α (Example 58, 0.8 ug/ml, donor 3): 52 pg/mL | IFN-α (Example 58, 0.8 ug/ml, donor 4): 52 pg/mL | IFN-α mean (Example 58, 0.8 ug/ml, mean of four individuals): 52 pg/mL | IFN-α (Example 58, 4 ug/ml, donor 1): 52 pg/mL | IFN-α (Example 58, 4 ug/ml, donor 2): 52 pg/mL | IFN-α (Example 58, 4 ug/ml, donor 3): 52 pg/mL | IFN-α (Example 58, 4 ug/ml, donor 4): 52 pg/mL | IFN-α mean (Example 58, 4 ug/ml, mean of four individuals): 52 pg/mL | IFN-α (Example 58, 20 ug/ml, donor 1): 52 pg/mL | IFN-α (Example 58, 20 ug/ml, donor 2): 52 pg/mL | IFN-α (Example 58, 20 ug/ml, donor 3): 52 pg/mL | IFN-α (Example 58, 20 ug/ml, donor 4): 52 pg/mL | IFN-α mean (Example 58, 20 ug/ml, mean of four individuals): 52 pg/mL | IFN-α (Example 59, 0.8 ug/ml, donor 48): 102 pg/mL | IFN-α (Example 59, 0.8 ug/ml, donor 177): 102 pg/mL | IFN-α (Example 59, 0.8 ug/ml, donor 272): 102 pg/mL | IFN-α (Example 59, 0.8 ug/ml, donor 273): 102 pg/mL | IFN-α mean (Example 59, 0.8 ug/ml, mean of four donors): 102 pg/mL | IFN-α (Example 59, 4 ug/ml, donor 48): 102 pg/mL | IFN-α (Example 59, 4 ug/ml, donor 177): 102 pg/mL | IFN-α (Example 59, 4 ug/ml, donor 272): 102 pg/mL | IFN-α (Example 59, 4 ug/ml, donor 273): 102 pg/mL | IFN-α mean (Example 59, 4 ug/ml, mean of four donors): 102 pg/mL | IFN-α (Example 59, 20 ug/ml, donor 48): 102 pg/mL | IFN-α (Example 59, 20 ug/ml, donor 177): 102 pg/mL | IFN-α (Example 59, 20 ug/ml, donor 272): 102 pg/mL | IFN-α (Example 59, 20 ug/ml, donor 273): 102 pg/mL | IFN-α mean (Example 59, 20 ug/ml, mean of four donors): 102 pg/mL | IFN-α (Table 9, donor 28089): 0 pg/mL | IFN-γ (Table 9, donor 28089): 0 pg/mL | IFN-α (Table 9, donor 28090): 27 pg/mL | IFN-γ (Table 9, donor 28090): 4 pg/mL | IFN-α (Table 9, donor 28098): 19 pg/mL | IFN-γ (Table 9, donor 28098): 0 pg/mL | IFN-α (Table 9, donor 28099): 37 pg/mL | IFN-γ (Table 9, donor 28099): 2 pg/mL | IFN-α mean (Table 9, mean of donors): 21 pg/mL | IFN-γ mean (Table 9, mean of donors): 1 pg/mL | IFN-α (Table 10, donor 28042): 0 pg/mL | IFN-γ (Table 10, donor 28042): 66 pg/mL | IFN-α (Table 10, donor 28043): 11 pg/mL | IFN-γ (Table 10, donor 28043): 76 pg/mL | IFN-α (Table 10, donor 28044): 22 pg/mL | IFN-γ (Table 10, donor 28044): 26 pg/mL | IFN-α (Table 10, donor 28045): 20 pg/mL | IFN-γ (Table 10, donor 28045): 13 pg/mL | IFN-α mean (Table 10, mean of donors): 13 pg/mL | IFN-γ mean (Table 10, mean of donors): 45 pg/mL | IFN-α (Table 11, donor 28042): 0 pg/mL | IFN-γ (Table 11, donor 28042): 34 pg/mL | IFN-α (Table 11, donor 28043): 0 pg/mL | IFN-γ (Table 11, donor 28043): 19 pg/mL | IFN-α (Table 11, donor 28044): 4 pg/mL | IFN-γ (Table 11, donor 28044): 48 pg/mL | IFN-α (Table 11, donor 28045): 54 pg/mL | IFN-γ (Table 11, donor 28045): 35 pg/mL | IFN-α mean (Table 11, mean of donors): 15 pg/mL
